{"source": "patent US20110008279A1", "about": "“Methods and Compositions Relating to Adhesins as Adjuvants” (priority 2005, published 2011)", "key": {"human monocytes [1]": {"tested_on": "human monocytes", "experiment": "Long-term differentiation of monocytes, surface markers", "format": "cell-based", "details": "culture up to 7 days", "experimental": "(§1) In order to evaluate the possible long-term, differentiation effect of NadA, adherent monocytes were treated with medium alone, NadAΔ351-405 or E. coli LPS and cells were cultured for seven days. At day 4 the agonists were added again to ensure a constant stimulation. Cell morphology was monitored by light microscopy after 1, 2, 3 and 7 days. […] NadAΔ351-405 thus induces both alteration cell morphology and distribution, this is a good indicator of monocyte activation and differentiation.\nThe long-term, differentiation effect of NadAΔ351-405 on monocytes was further investigated by measuring the expression of the antigen presentation marker MHC-II, co-stimulatory molecules CD80 and CD86 and cell-specific molecules: CD14 (monocyte), CD16 (macrophage) and CD1a (Dendritic cell)."}, "human macrophages [2]": {"tested_on": "human macrophages", "experiment": "Cytokine and chemokine secretion by human macrophages (Bio-Plex, IL-23 ELISA)", "format": "cell-based", "experimental": "The secretion of various immune mediators by isolated adherent human […] and macrophages was assayed with a Bio-Plex immune array. The pro-inflammatory cytokines IL-1α, IL-1β, TNFα, IFNγ, IL-6, the growth factor GM-CSF, the regulatory cytokines IL-12 (p40), IL-12 (p70), IL-10, as well as the chemokines IL-8, MCP-1, MIP-1α, IP-10, RANTES and EOTAXIN were assayed. The lymphocyte cytokines IL-2, IL-3, IL-4, IL-5, IL-7, IL-13 and IL-15 were also assayed. IL-23 expression was assayed using an ELISA assay. No secretion of IL-2, IL-3, IL-4, IL-5, IL-7, IL-13 or IL-15 was detected.\nPeripheral monocytes and macrophages were stimulated with different concentrations of NadAΔ351-405, with or without LPS (0.2 μg/ml) and IFNγ (1000 U/ml), and with purified E. coli or N. meningitis OMV."}, "human macrophages [3]": {"tested_on": "human macrophages", "experiment": "Surface markers of human macrophages", "format": "cell-based", "source_text": "(§2) The functional effect of NadA on human monocytes and macrophages was investigated using a soluble recombinant mutant lacking the membrane anchor and a full length protein expressed in E. coli OMV or N meningitidis OMV. To better define the immuno-modulatory activity of NadA, the cells were stimulated with protein plus or minus both microbial stimulus (LPS) and immunological stimulus (IFNγ).\n(§3) The effect of NadAΔ351-405 on monocyte and macrophage cells was further investigated by measuring the expression of the antigen presentation marker MHC-II, the co-stimulatory molecules CD80 and CD86 and the cell adhesion molecule ICAM-1."}, "human monocytes [4]": {"tested_on": "human monocytes", "experiment": "Surface markers of human monocytes", "format": "cell-based", "source_text": "as §2, §3"}, "mo-DCs": {"tested_on": "mo-DCs", "experiment": "Expression of maturation markers on mo-DCs (flow cytometry)", "format": "cell-based, human", "details": "for CD86 expression on co-stimulation with R-848: R-848 1 μM, NadA 1.5 μM", "experimental": "Reagents used were tested for low endotoxin contamination using the Limulus amoebocyte assay (Sigma). Dendritic cells were generated from human peripheral blood mononuclear cells (PBMC) as described previously. In brief, PBMC were isolated from buffy coats of healthy donors by Ficoll-Paque Plus density gradient centrifugation (Amersham Pharmacia Biotech AB). Separate monocyte and T-cell fractions were obtained from PBMCs by Percoll density gradient centrifugation (Amersham Pharmacia Biotech AB). […] DC were obtained by 6-d culture adherent monocytes in medium with 20 ng/ml IL-4 (5×10^6 units/mg, Peprotech) and 50 ng/ml GM-CSF (1×10^7 units/mg, Peprotech). Cytokines were added again on day 4 in RPMI-1640 medium supplemented with 10% FBS. […] After 24 h cells were harvested and analysed. Culture supernatants were collected frozen in liquid nitrogen and conserved at −80° C. for cytokine analysis.\nAfter differentiation, DC were routinely stained with phycoerytrin conjugated monoclonal antibodies to human CD14, CD1a, CD83, CD86 (B7.2), CD80 (B7.1), MHC II (HLA-DR), purchased from BD-Pharminghen and Caltag. In parallel, cells were stained with the isotype matched control mAb. Cells were immunostained with the proper dilution of PE-conjugated anti human monoclonal antibodies at 4° C. for 30 min in 100 μl of phosphate-buffered saline pH 7.2 (PBS, GIBCO BRL) containing 1% FBS and 0.1% NaN3 (FACS buffer). After washing, propidium iodide was added to exclude dead cells and cell fluorescence intensities of the gated populations were measured with a EPICS XL-MCL (Coulter) flow cytometer and analyzed with EXPO 32ADC XL 3COLOR or WinMDI 2.8. software. Data were collected on 10000-20000 events."}, "[5]": {"tested_on": "allogenic CD4+ naïve T lymphocyte", "experiment": "Allogenic mixed leukocyte reaction, naive CD4+ T-cell proliferation", "format": "cell-based, human", "experimental": "Allogenic mixed leukocyte reaction was performed with irradiated (3000 rads from a ^137Cs source) mo-DC and purified allogenic T cells. […], LPS 1 μg/ml (positive control) and non stimulated DC (negative control) pretreated or not with IFN-γ 1000 U/ml were washed and cultured with allogenic CD4+ naïve T lymphocyte (0.3×10^5 cells/well) for 5 days at 37° C. in a humidified CO2 incubator in round-bottom 96-well microtiter plates (Costar). Proliferation was measured by pulse-labelling triplicate wells for 6 h with 1 μCi of 3H-Thymidine/well (Amersham Biosciences). Negative controls included T naive cells incubated or DC incubated alone.\n^3H-Thymidine incorporation was measured by harvesting cells onto glass fiber filter paper (Pall Corporation, Life Sciences) using a 96-well semiautomatic cell harvester (Multiwash 2000, Dynatech) and counting by liquid scintillation in a […] (Wallac 1409 liquid scintillation counter)."}, "[6]": {"tested_on": "alternative pathway in the complement system", "experiment": "Bactericidal assay, complement alternative pathway (NHS, Mg2+/EGTA, E. coli-pET)", "format": "biochemical, human", "details": "3 μM, control E. coli-pET", "experimental": "Complement activation by the alternative pathway was also investigated. […] The susceptibility to complement-mediated lysis was determined by incubating E. coli-NadA and E. coli-pET with 0-75% NHS at 37° C. for 15 min under agitation. The number of surviving bacterial cells was measured by serial agar plating and colony counting."}, "human monocytes [7]": {"tested_on": "human monocytes", "experiment": "Long-term morphology of monocytes (light microscopy)", "format": "cell-based", "experimental": "as §1"}}}
{"substance": "NadAΔ351-405", "values": [{"measurement": "CD1a expression", "setting": "human monocytes [1]", "value": "not increased"}, {"measurement": "CD14 expression", "setting": "human monocytes [1]", "value": "steadily increased on days two and three"}, {"measurement": "CD16 expression", "setting": "human monocytes [1]", "value": "increased more intensely than in the control cells in the first three days"}, {"measurement": "CD80 expression", "setting": "human monocytes [1]", "value": "not over-expressed"}, {"measurement": "CD86 expression", "setting": "human monocytes [1]", "value": "increased more intensely than in the control cells in the first three days"}, {"measurement": "HLA-DR surface expression", "setting": "human monocytes [1]", "value": "reached a maximal expression level on day three"}, {"measurement": "EOTAXIN expression", "setting": "human macrophages [2]", "value": "decrease"}, {"measurement": "GM-CSF secretion", "setting": "human macrophages [2]", "value": "No secretion"}, {"measurement": "IL-1α production", "setting": "human macrophages [2]", "value": "No IL-1α was produced"}, {"measurement": "IL-1β and TNFα production", "setting": "human macrophages [2]", "value": "produced only IL-1β and TNFα"}, {"measurement": "IL-10 production", "setting": "human macrophages [2]", "value": "induced the production"}, {"measurement": "IP-10 production", "setting": "human macrophages [2]; NadA alone", "value": "In neither monocytes nor macrophages was NadA alone able to produce IP-10"}, {"measurement": "IL-12(p40) expression", "setting": "human macrophages [2]; NadA alone, even in the presence of LPS and IFNγ", "value": "decrease"}, {"measurement": "IL-6 secretion", "setting": "human macrophages [2]; together with IFNγ", "value": "increasing secretions"}, {"measurement": "ICAM-1 expression", "setting": "human macrophages [3]", "value": "increased"}, {"measurement": "HLA-DR expression", "setting": "human macrophages [3]; IFN-γ co-stimulation", "value": "greatly enhanced"}, {"measurement": "CD80 expression", "setting": "human macrophages [3]; co-stimulation with IFN-γ", "value": "increased"}, {"measurement": "CD86 expression", "setting": "human macrophages [3]; co-stimulation with LPS", "value": "Partial stimulation"}, {"measurement": "CD80 expression", "setting": "human monocytes [4]; co-stimulation with IFN-γ", "value": "increased"}, {"measurement": "CD86 or HLA-DR expression", "setting": "human monocytes [4]; with LPS or IFN-γ", "value": "No NadA immunomodulatory effect"}, {"measurement": "CD86 expression on co-stimulation with R-848", "setting": "mo-DCs; no IFN-γ priming", "value": "addition of the two effects"}, {"measurement": "CD86 expression on co-stimulation with R-848", "setting": "mo-DCs; after IFN-γ priming, flagellin 10 μg/ml", "value": "maximal CD86 expression"}, {"measurement": "CD83 level relative to that induced by LPS", "setting": "mo-DCs; after IFN-γ priming", "value": "~50", "unit": "%"}, {"measurement": "CD86 expression, dose response", "setting": "mo-DCs; after IFN-γ priming", "value": "effectively induced CD86 also in the submicromolar concentration range"}, {"measurement": "CD86 level", "setting": "mo-DCs; after IFN-γ priming", "value": "reached the same value observed in LPS-treated cells"}, {"measurement": "IFN-γ potentiation of NadA effect on CD86", "setting": "mo-DCs; at higher NadA concentrations", "value": "2-3 fold"}, {"measurement": "CD86 expression, dose response", "setting": "mo-DCs; no IFN-γ priming", "value": "not different from control cells below 1 μM NadA"}, {"measurement": "plasma membrane HLA-DR expression", "setting": "mo-DCs; no IFN-γ priming", "value": "partially increased"}, {"measurement": "CD83 expression", "setting": "mo-DCs; no IFN-γ priming, 24 hour exposure, 1 μM / 1.5 μM", "value": "not increased"}, {"measurement": "T lymphocyte activation by mo-DCs", "setting": "[5]; absence of IFN-γ priming, 1 μM", "value": "not able to induce a mo-DC phenotype competent for T lymphocyte activation"}, {"measurement": "T cell proliferation relative to LPS-matured mo-DCs", "setting": "[5]; mo-DCs primed with INFγ then stimulated with NadA", "value": "30-40%"}, {"measurement": "effect on the alternative pathway", "setting": "[6]", "value": "partially inhibit"}, {"measurement": "cell morphology", "setting": "human monocytes [7]; 3-day incubation", "value": "became elongated and tended to cluster"}, {"measurement": "number of surviving cells with respect to the control", "setting": "human monocytes [7]; 7 culture days", "value": "greatly increased"}]}
